According to patent US11034672B1, “Tyrosine kinase inhibitor compositions, methods of making and methods of use” (Black Diamond Therapeutics, Inc., priority 2018, dated 2021):

Tests used:
Format in all cases: cell-based
EGFR SVD [1] = molecular target: T1, EGFR SVD (Homo sapiens, UniProt P00533, DUP768-770); assay: BaF3 cell proliferation assay, EGFR SVD (Table A); conditions: potency code, 3 days, CellTiterGlo, read-out: EGFR SVD (Activity for Inhibiting EGFR)
T1 construct: expressed in transfected cells; host or cells: BaF3 (murine pro-B), retroviral pMXs-IRES-Blasticidin
T1 sequence (P00533 with tags, fused parts or gaps DUP768-770): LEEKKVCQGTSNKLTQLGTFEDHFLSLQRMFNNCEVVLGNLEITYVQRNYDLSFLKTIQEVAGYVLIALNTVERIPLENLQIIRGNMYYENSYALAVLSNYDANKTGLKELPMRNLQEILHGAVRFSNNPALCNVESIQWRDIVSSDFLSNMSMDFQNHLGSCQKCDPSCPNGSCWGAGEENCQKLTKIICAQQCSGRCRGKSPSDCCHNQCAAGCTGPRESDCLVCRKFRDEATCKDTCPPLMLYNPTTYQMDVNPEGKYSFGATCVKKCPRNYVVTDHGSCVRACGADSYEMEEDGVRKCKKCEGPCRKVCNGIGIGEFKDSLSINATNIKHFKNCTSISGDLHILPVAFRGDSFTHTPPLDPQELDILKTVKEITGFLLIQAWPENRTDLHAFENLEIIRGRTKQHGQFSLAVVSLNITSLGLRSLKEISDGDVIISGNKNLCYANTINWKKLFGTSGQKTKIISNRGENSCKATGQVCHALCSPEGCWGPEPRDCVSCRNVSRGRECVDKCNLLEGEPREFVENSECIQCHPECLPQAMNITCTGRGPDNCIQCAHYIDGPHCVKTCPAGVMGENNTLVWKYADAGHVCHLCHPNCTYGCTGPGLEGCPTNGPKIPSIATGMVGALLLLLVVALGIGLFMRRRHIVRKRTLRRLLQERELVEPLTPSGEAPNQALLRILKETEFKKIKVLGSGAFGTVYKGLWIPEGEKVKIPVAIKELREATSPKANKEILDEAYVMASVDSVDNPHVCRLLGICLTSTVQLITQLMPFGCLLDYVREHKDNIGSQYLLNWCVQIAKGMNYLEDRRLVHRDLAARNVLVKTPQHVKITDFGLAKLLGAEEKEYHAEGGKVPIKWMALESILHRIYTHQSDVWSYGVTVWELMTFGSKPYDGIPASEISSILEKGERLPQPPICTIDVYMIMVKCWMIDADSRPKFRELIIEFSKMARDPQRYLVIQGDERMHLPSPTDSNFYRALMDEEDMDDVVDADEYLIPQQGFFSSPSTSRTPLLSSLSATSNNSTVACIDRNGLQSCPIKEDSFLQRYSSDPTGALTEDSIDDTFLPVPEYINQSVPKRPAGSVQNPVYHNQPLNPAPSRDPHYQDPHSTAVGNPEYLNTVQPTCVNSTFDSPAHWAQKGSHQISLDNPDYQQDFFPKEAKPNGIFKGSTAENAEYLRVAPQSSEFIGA
Experimental: (§1) Retroviral Production: EGFR mutants were subcloned into pMXs-IRES-Blasticidin (RTV-016, Cell Biolabs, San Diego, Calif.). Retroviral expression vector retrovirus was produced by transient transfection of HEK 293T cells with the retroviral EGFR mutant expression vector pMXs-IRES-Blasticidin (RTV-016, Cell Biolabs), pCMV-Gag-Pol vector and pCMV-VSV-G-Envelope vector. Briefly, HEK 293T/17 cells were plated in 100 mm collagen coated plate (354450, Corning Life Sciences, Tewksbury, Mass.) (4×10^5 per plate) and incubated overnight. The next day, retroviral plasmids (3 μg of EGFR mutant, 1.0 μg of pCMV-Gag-Pol and 0.5 μg pCMV-VSV-G) were mixed in 500 μl of Optimem (31985, Life Technologies). The mixture was incubated at room temperature for 5 min and then added to Optimem containing transfection reagent Lipofectamine (11668, Invitrogen) and incubated for 20 minutes. Mixture was then added dropwise to HEK 293T cells. The next day the medium was replaced with fresh culture medium and retrovirus was harvested @ 24 and 48 hrs.
(§2) Generation of EGFR mutant stable cell lines: BaF3 cells (1.5E5 cells) were infected with 1 ml of viral supernatant supplemented with 8 μg/ml polybrene by centrifuging for 30 min at 1000 rpm. Cells were placed in a 37° C. incubator overnight. Cells were then spun for 5 minutes to pellet the cells. Supernatant was removed and cells re-infected a fresh 1 ml of viral supernatant supplemented with 8 μg/ml polybrene by centrifuging for 30 min at 1000 rpm. Cells were placed in 37° C. incubator overnight. […] After 48 hours cells were selected for retroviral infection in 10 μg/ml Blasticidin for one week. Blasticidin resistant populations were washed twice in phosphate buffered saline before plating in media lacking IL-3 to select for IL-3 independent growth.
(§3) EC50 values were determined with the same application.

EGFR NPH [2] = molecular target: T2, EGFR NPH (Homo sapiens, UniProt P00533, DUP771-773); assay: BaF3 cell proliferation assay, EGFR NPH (Table A); conditions: potency code, 3 days, CellTiterGlo, read-out: EGFR NPH (Activity for Inhibiting EGFR)
T2 construct: expressed in transfected cells; host or cells: BaF3 (murine pro-B), retroviral pMXs-IRES-Blasticidin
Experimental: as §1, §2, §3

HER2 YVMA [3] = molecular target: T3, HER2 YVMA (Homo sapiens, UniProt P04626, INS775YVMA); assay: Activity for inhibiting HER2 (Table B), HER2 YVMA; conditions: read-out: HER2 YVMA, potency code (IC50)
T3 construct: expressed in transfected cells; host or cells: BaF3 (murine pro-B)
T3 sequence (P04626 with tags, fused parts or gaps INS775YVMA): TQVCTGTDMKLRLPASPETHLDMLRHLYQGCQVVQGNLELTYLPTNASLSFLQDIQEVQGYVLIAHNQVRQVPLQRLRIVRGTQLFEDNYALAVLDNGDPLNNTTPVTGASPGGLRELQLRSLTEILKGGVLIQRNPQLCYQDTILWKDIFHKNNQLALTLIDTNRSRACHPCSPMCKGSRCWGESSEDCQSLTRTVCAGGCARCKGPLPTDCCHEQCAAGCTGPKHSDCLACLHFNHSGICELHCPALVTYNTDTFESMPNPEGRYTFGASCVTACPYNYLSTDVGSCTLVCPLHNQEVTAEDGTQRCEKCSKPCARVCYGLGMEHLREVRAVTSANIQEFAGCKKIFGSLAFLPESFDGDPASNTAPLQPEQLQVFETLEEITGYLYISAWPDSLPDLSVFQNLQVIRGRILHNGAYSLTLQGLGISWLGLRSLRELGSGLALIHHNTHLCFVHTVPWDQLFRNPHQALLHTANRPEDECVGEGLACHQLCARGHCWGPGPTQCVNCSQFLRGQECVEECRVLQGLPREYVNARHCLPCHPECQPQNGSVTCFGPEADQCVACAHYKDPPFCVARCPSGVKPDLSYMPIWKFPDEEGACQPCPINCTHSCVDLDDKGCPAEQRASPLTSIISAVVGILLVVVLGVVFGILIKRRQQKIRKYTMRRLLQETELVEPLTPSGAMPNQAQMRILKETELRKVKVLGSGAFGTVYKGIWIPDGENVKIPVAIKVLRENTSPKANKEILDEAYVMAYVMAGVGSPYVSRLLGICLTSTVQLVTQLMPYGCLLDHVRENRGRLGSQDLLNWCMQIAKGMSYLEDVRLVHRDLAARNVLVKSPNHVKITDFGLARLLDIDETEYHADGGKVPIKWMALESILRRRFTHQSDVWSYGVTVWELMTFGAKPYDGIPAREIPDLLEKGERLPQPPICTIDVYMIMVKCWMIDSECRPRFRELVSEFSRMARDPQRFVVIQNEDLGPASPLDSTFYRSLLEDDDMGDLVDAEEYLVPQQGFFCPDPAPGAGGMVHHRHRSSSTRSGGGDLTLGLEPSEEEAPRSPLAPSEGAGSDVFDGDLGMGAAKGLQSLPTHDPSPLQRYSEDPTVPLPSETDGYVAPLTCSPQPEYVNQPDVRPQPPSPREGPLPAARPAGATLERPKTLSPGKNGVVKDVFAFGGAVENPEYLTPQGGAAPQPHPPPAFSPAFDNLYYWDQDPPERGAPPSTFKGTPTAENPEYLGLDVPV
Experimental: as §3

EGFR NPH [4] = molecular target: T2, EGFR NPH; assay: Activity for inhibiting EGFR (Table A), EGFR NPH; conditions: read-out: EGFR NPH, potency code (IC50)
EGFR V3 [5] = molecular target: T4, EGFR V3 (Homo sapiens, UniProt P00533, DELINS30-297G); assay: Activity for inhibiting EGFR (Table A), EGFR V3 (EGFR-Viii); conditions: read-out: EGFR V3, potency code (IC50)
T4 construct: expressed in transfected cells; host or cells: BaF3 (murine pro-B), retroviral pMXs-IRES-Blasticidin
T4 sequence (P00533 with tags, fused parts or gaps DELINS30-297G): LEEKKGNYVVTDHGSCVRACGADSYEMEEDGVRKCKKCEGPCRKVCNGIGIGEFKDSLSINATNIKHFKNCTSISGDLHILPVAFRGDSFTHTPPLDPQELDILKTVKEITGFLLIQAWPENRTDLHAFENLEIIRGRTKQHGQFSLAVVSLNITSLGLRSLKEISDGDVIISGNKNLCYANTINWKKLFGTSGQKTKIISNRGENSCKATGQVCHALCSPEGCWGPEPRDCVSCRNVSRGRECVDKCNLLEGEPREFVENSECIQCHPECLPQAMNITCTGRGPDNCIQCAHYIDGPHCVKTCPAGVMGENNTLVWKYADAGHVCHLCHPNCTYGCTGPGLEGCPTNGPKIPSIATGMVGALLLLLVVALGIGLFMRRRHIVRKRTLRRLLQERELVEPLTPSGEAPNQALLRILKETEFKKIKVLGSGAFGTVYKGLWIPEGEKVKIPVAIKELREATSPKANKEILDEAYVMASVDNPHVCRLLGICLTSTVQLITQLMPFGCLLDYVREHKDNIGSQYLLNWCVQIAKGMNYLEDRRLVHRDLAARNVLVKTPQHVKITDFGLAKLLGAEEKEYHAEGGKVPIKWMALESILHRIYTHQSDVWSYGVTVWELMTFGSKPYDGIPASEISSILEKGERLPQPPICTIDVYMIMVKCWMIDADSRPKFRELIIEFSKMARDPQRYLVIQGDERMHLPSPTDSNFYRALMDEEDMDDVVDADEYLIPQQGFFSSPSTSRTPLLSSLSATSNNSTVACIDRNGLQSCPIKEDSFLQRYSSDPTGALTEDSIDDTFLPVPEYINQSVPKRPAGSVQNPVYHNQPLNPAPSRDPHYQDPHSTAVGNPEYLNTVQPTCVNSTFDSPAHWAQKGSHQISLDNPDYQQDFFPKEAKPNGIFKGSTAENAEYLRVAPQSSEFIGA

EGFR WT [6] = molecular target: T5, EGFR WT (Homo sapiens, UniProt P00533); assay: Activity for inhibiting EGFR (Table A), EGFR WT; conditions: read-out: EGFR WT, potency code (IC50)
HER2 S310F [7] = molecular target: T6, HER2 S310F (Homo sapiens, UniProt P04626, S310F); assay: BaF3 cell proliferation assay, HER2 S310F (Table B); conditions: potency code, 3 days, CellTiterGlo, read-out: HER2 S310F (Activity for Inhibiting HER2)
T6 construct: expressed in transfected cells; host or cells: BaF3 (murine pro-B)

EGFR V3 [8] = molecular target: T4, EGFR V3; assay: BaF3 cell proliferation assay, EGFR V3 (Table A); conditions: potency code, 3 days, CellTiterGlo, read-out: EGFR V3 (Activity for Inhibiting EGFR)
Summary of the method: (§4)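 EC50 values come from proliferation of IL-3-independent BaF3 lines. These lines were made by two spin infections with retrovirus encoding each mutant, plus polybrene (8 μg/ml). They then underwent one week of 10 μg/ml blasticidin selection and were removed from IL-3.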

EGFR WT [9] = molecular target: T5, EGFR WT; assay: BaF3 cell proliferation assay, EGFR WT (Table A); conditions: potency code, 3 days, CellTiterGlo, read-out: EGFR WT (Activity for Inhibiting EGFR)
Summary of the method: as §4

HER2 WT [10] = molecular target: T7, HER2 WT (Homo sapiens, UniProt P04626); assay: Activity for inhibiting HER2 (Table B), HER2 WT
T7 sequence (P04626 23-1255): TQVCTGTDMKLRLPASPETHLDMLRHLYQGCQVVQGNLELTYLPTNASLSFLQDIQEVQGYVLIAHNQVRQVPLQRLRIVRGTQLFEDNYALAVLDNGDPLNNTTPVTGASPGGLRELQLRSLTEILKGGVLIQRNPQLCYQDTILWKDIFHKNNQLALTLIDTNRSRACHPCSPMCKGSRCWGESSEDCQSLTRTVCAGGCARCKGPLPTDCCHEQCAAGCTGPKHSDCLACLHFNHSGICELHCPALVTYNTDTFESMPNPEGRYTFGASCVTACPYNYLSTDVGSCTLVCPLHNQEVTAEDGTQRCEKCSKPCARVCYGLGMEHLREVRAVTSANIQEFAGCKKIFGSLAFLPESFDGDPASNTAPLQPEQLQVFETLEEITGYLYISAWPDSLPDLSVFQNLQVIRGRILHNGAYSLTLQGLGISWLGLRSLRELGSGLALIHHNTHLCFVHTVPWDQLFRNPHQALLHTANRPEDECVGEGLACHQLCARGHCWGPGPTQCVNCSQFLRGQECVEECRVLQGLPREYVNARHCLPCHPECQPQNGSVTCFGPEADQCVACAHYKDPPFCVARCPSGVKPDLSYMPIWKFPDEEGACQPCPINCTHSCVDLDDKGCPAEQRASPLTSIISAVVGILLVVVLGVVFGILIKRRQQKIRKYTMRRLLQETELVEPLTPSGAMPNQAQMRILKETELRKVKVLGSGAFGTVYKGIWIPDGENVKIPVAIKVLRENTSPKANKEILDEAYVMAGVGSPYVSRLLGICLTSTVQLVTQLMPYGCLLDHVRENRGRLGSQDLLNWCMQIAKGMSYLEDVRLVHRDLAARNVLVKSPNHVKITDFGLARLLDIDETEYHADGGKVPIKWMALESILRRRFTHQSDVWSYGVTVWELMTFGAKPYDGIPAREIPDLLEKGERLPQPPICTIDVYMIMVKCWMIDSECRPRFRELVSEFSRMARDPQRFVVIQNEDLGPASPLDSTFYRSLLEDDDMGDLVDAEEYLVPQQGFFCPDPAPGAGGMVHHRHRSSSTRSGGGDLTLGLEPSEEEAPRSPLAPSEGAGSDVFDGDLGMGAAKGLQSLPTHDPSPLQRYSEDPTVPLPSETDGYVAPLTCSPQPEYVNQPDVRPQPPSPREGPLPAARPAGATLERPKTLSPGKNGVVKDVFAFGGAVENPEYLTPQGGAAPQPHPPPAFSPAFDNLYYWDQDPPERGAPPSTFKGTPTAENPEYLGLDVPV

HER2 WT [11] = molecular target: T7, HER2 WT; assay: BaF3 cell proliferation assay, HER2 WT (Table B); conditions: potency code, 3 days, CellTiterGlo, read-out: HER2 WT (Activity for Inhibiting HER2)
EGFR SVD [12] = molecular target: T1, EGFR SVD; assay: Activity for inhibiting EGFR (Table A), EGFR SVD; conditions: read-out: EGFR SVD, potency code (IC50)
HER2 YVMA [13] = molecular target: T3, HER2 YVMA; assay: BaF3 cell proliferation assay, HER2 YVMA (Table B); conditions: potency code, 3 days, CellTiterGlo, read-out: HER2 YVMA (Activity for Inhibiting HER2)
HER2 S310F [14] = molecular target: T6, HER2 S310F; assay: Activity for inhibiting HER2 (Table B), HER2 S310F; conditions: read-out: HER2 S310F, potency code (IC50)
Experimental: as §3

[15] = Table B, read-out: HER2 WT, potency code (IC50)
[16] = text lists of compounds, read-out: IC50 value for inhibiting wild-type HER2

Structure (SMILES) | IC50 (EGFR SVD [1]) [nM] | IC50 (EGFR NPH [2]) [nM] | IC50 (HER2 YVMA [3]) [nM] | IC50 (EGFR NPH [4]) [nM] | IC50 (EGFR V3 [5]) [nM] | IC50 (EGFR WT [6]) [nM] | IC50 (HER2 S310F [7]) [nM] | IC50 (EGFR V3 [8]) [nM] | IC50 (EGFR WT [9]) [nM] | IC50 (HER2 WT [10]; [15]) [nM] | IC50 (HER2 WT [10]; [16]) [nM] | IC50 (HER2 WT [11]) [nM] | IC50 (EGFR SVD [12]) [nM] | IC50 (HER2 YVMA [13]) [nM] | IC50 (HER2 S310F [14]) [nM]
C=CC(=O)Nc1cc2c(Nc3ccc(OCc4ccccn4)c(Cl)c3)ncnc2cc1OCC1CCCN1 (stereo not shown) [compound 13] | 200 to 300 | 300 to 500 | 300 to 500 | 300 to 500 | 50 to 100 | 300 to 500 | 30 to 50 | 50 to 100 | 300 to 500 | 5 to 10 | ≤ 20 | 5 to 10 | 200 to 300 | 300 to 500 | 30 to 50
C=CC(=O)Nc1cc2c(Nc3ccc(OCc4ccccn4)c(Cl)c3)ncnc2cc1C#CC(C)(C)N1CCCC1 [compound 84, N-(4-((3-chloro-4-(pyridin-2-ylmethoxy)phenyl)amino)-7-(3-methyl-3-(pyrrolidin-1-yl)but-1-yn-1-yl)quinazolin-6-yl)acrylamide] | 50 to 100 | 50 to 100 | 30 to 50 | 50 to 100 | 20 to 30 | 500 to 1000 | 5 to 10 | 20 to 30 | 500 to 1000 |  |  |  | 50 to 100 | 30 to 50 | 5 to 10
C=CC(=O)Nc1cc2c(Nc3ccc(OCc4ccccn4)c(Cl)c3)c(C#N)cnc2cc1OCCN1CCOCC1 [compound 11] | 300 to 500 | 300 to 500 |  | 300 to 500 | 50 to 100 | 300 to 500 | 50 to 100 | 50 to 100 | 300 to 500 | 30 to 50 | ≤ 50 | 30 to 50 | 300 to 500 |  | 50 to 100

The remaining lines, values ahead:

IC50 (EGFR SVD [1]) [nM] | IC50 (EGFR NPH [2]) [nM] | IC50 (HER2 YVMA [3]) [nM] | IC50 (EGFR NPH [4]) [nM] | IC50 (EGFR V3 [5]) [nM] | IC50 (EGFR WT [6]) [nM] | IC50 (HER2 S310F [7]) [nM] | IC50 (EGFR V3 [8]) [nM] | IC50 (EGFR WT [9]) [nM] | IC50 (HER2 WT [10]; [15]) [nM] | IC50 (HER2 WT [10]; [16]) [nM] | IC50 (HER2 WT [11]) [nM] | IC50 (EGFR SVD [12]) [nM] | IC50 (HER2 YVMA [13]) [nM] | IC50 (HER2 S310F [14]) [nM] | Structure (SMILES)
50 to 100 | 50 to 100 | 30 to 50 | 50 to 100 | 30 to 50 | > 1000 | 20 to 30 | 30 to 50 | > 1000 | 10 to 20 | ≤ 20 | 10 to 20 | 50 to 100 | 30 to 50 | 20 to 30 | C=CC(=O)Nc1cc2c(Nc3ccc(OCc4ccccn4)c(Cl)c3)ncnc2cc1OCCN1CC2CCC(C1)O2 [compound 36]
30 to 50 | 50 to 100 | 50 to 100 | 50 to 100 | 30 to 50 | 500 to 1000 | 20 to 30 | 30 to 50 | 500 to 1000 |  |  |  | 30 to 50 | 50 to 100 | 20 to 30 | C=CC(=O)Nc1cc2c(Nc3ccc(OCc4ccccn4)c(Cl)c3)ncnc2cc1OCCC1(N(C)C)CC1 [compound 102, N-(4-((3-chloro-4-(pyridin-2-ylmethoxy)phenyl)amino)-7-(2-(1-(dimethylamino)cyclopropyl)ethoxy)quinazolin-6-yl)acrylamide]
30 to 50 | 50 to 100 | 5 to 10 | 50 to 100 | 10 to 20 | 50 to 100 | 5 to 10 | 10 to 20 | 50 to 100 |  |  |  | 30 to 50 | 5 to 10 | 5 to 10 | CC#CC(=O)Nc1cc2c(Nc3ccc(OCc4ccccn4)c(Cl)c3)ncnc2cc1OCCN1CCN(C)CC1 [compound 70]
20 to 30 | 20 to 30 | 30 to 50 | 20 to 30 | 20 to 30 | 200 to 300 | 5 to 10 | 20 to 30 | 200 to 300 |  |  |  | 20 to 30 | 30 to 50 | 5 to 10 | C=CC(=O)Nc1cc2c(Nc3ccc(OCc4ccccn4)c(Cl)c3)ncnc2cc1C#C[C@H]1CCN(C)C1 [compound 85, N-(4-((3-chloro-4-(pyridin-2-ylmethoxy)phenyl)amino)-7-((1-methylpyrrolidin-3-yl)ethynyl)quinazolin-6-yl)acrylamide]
20 to 30 | 20 to 30 | 20 to 30 | 20 to 30 | 10 to 20 | 300 to 500 | 10 to 20 | 10 to 20 | 300 to 500 |  |  |  | 20 to 30 | 20 to 30 | 10 to 20 | C=CC(=O)Nc1cc2c(Nc3ccc(OCc4ccccn4)c(Cl)c3)ncnc2cc1OCCCN1CCN(C)CC1 [compound 69]
